According to US6599930B2, “Coniosetin and derivatives thereof, process for the preparation and the use thereof” (Aventis Pharma Deutschland GmbH, priority 2000, dated 2003):
In brackets after ≈: the same amount, converted by molar mass. Where two headings read alike, the source gives them in different places.

Assays:
Enterococcus faecalis = test: MIC, serial dilution test; assay type: cell-based
From the text: (§1) Table 1 summarizes the minimum inhibitory concentrations (MIC) of coniosetin by way of example.

Enterococcus faecium = test: MIC, serial dilution test; assay type: cell-based; conditions: teiR vanR eryR tetR
From the text: as §1

Escherichia coli [1] = test: MIC, serial dilution test; assay type: cell-based; conditions: 18 h
From the text: as §1

S. agalactiae = test: MIC, serial dilution test; assay type: cell-based; conditions: Streptococcus agalactiae, ery R
From the text: as §1

S. epidermidis = test: MIC, serial dilution test; assay type: cell-based; conditions: Staphylococcus epidermidis
From the text: as §1

S. mitis = test: MIC, serial dilution test; assay type: cell-based; conditions: Streptococcus mitis
From the text: as §1

S. pneumoniae = test: MIC, serial dilution test; assay type: cell-based; conditions: Streptococcus pneumoniae
From the text: as §1

S. pyogenes = test: MIC, serial dilution test; assay type: cell-based; conditions: Streptococcus pyogenes
From the text: as §1

S. sanguis = test: MIC, serial dilution test; assay type: cell-based; conditions: ery R
From the text: as §1

Staphylococcus aureus [2] = test: MIC, serial dilution test; assay type: cell-based
From the text: as §1

Streptococcus gr. G = test: MIC, serial dilution test; assay type: cell-based
From the text: as §1

Aspergillus niger = test: Agar diffusion test; assay type: cell-based; conditions: for zone of inhibition at 10000 µM: 40 h, A. niger, 28° C., 40 hours, read-out: Zone of inhibition, diameter
Method: (§2) Agar plates were prepared with a 2 ml inoculum of Staphylococcus aureus in 200 ml of agar solution, a 2 ml inoculum of Escherichia coli in 200 ml of agar; a 2 ml inoculum of Candida albicans in 200 ml of agar solution; a 1 ml inoculum of Aspergillus niger in 200 ml of agar solution and a 3 ml inoculum of Streptomyces murinus in 200 ml of agar solution. The coniosetin was applied in a 10 mM solution to disks with a diameter of 6 mm and placed on the agar plate. The inoculated Staphylococcus, E. coli and Candida plates were incubated at 37° C. for 16 hours, the A. niger plate was incubated at 28° C. for 40 hours, and the Streptomyces plate was incubated at 28° C. for 16 hours. Zones of inhibition with the following diameters (mm) were then observed.

Candida albicans = test: Agar diffusion test; assay type: cell-based; conditions: for zone of inhibition at 10000 µM: 16 h, C. albicans, 37° C., 16 hours, read-out: Zone of inhibition, diameter
Method: as §2

Escherichia coli [3] = test: Agar diffusion test; assay type: cell-based; conditions: E. coli, 37° C., 16 hours
Method: as §2

Staphylococcus aureus [4] = test: Agar diffusion test; assay type: cell-based; conditions: 16 h, S. aureus, 37° C., read-out: Zone of inhibition, diameter
Method: as §2

Streptomyces murinus = test: Agar diffusion test; assay type: cell-based; conditions: 16 h, S. murinus, 28° C., read-out: Zone of inhibition, diameter
Method: as §2

Solubility = assay type: physicochemical
Stability in solution = assay type: physicochemical
Tolerability = conditions: at the effective concentration and at higher concentrations
bacteria [5] = test: Antibacterial effect, general statements; assay type: cell-based; conditions: general statement
bacteria [6] = conditions: as described in the cited literature; cited from earlier work
[7] = 10 μl of 10 mM solution on 6 mm disk
[8] = 20 μl of 10 mM solution on 6 mm disk
[9] = 40 μl of 10 mM solution on 6 mm disk
[10] = compared with the antibacterial effect (Example 8)

## C/C=C/C=C/C1C(C)=CC2CC(C)CCC2C1(C)/C(O)=C1\C(=O)NC(C(C)O)C1=O (centres unmarked) [coniosetin]
Enterococcus faecalis; ery R, 24 h
  MIC: 2.5 µg/mL (≈ 6.05 µM)
Enterococcus faecalis; ery R, 48 h
  MIC: 2.5 µg/mL (≈ 6.05 µM)
Enterococcus faecalis; ery R, after 18 h
  MIC: 2.5 µg/mL (≈ 6.05 µM)
Enterococcus faecalis; ery S, 24 h, read-out: MIC
  MIC: 2.5 µg/mL (≈ 6.05 µM)
Enterococcus faecalis; ery S, 48 h, read-out: MIC
  MIC: 2.5 µg/mL (≈ 6.05 µM)
Enterococcus faecalis; ery S, after 18 h, read-out: MIC
  MIC: 2.5 µg/mL (≈ 6.05 µM)
Enterococcus faecium; 24 h
  MIC: 1.2 µg/mL (≈ 2.9 µM)
Enterococcus faecium; 48 h
  MIC: 2.5 µg/mL (≈ 6.05 µM)
Enterococcus faecium; after 18 h
  MIC: 1.2 µg/mL (≈ 2.9 µM)
Escherichia coli [1]
  MIC: > 40 µg/mL
S. agalactiae; 24 h
  MIC: 2.5 µg/mL (≈ 6.05 µM)
S. agalactiae; 48 h
  MIC: 2.5 µg/mL (≈ 6.05 µM)
S. agalactiae; after 18 h
  MIC: 2.5 µg/mL (≈ 6.05 µM)
S. epidermidis; 18 h, oxa R ery R, after 18 h
  MIC: 0.6 µg/mL (≈ 1.45 µM)
S. epidermidis; 18 h, oxa S ery R, after 18 h
  MIC: 0.3 µg/mL (≈ 0.725 µM)
S. epidermidis; 24 h, oxa R ery R
  MIC: 1.2 µg/mL (≈ 2.9 µM)
S. epidermidis; 24 h, oxa S ery R
  MIC: 0.3 µg/mL (≈ 0.725 µM)
S. epidermidis; 48 h, oxa R ery R
  MIC: 1.2 µg/mL (≈ 2.9 µM)
S. epidermidis; 48 h, oxa S ery R
  MIC: 0.3 µg/mL (≈ 0.725 µM)
S. mitis; 18 h, ery R, after 18 h
  MIC: 2.5 µg/mL (≈ 6.05 µM)
S. mitis; 18 h, ery S, after 18 h
  MIC: 1.2 µg/mL (≈ 2.9 µM)
S. mitis; 24 h, ery R
  MIC: 2.5 µg/mL (≈ 6.05 µM)
S. mitis; 24 h, ery S
  MIC: 2.5 µg/mL (≈ 6.05 µM)
S. mitis; 48 h, ery R
  MIC: 2.5 µg/mL (≈ 6.05 µM)
S. mitis; 48 h, ery S
  MIC: 2.5 µg/mL (≈ 6.05 µM)
S. pneumoniae; 18 h, ery R (first listed strain), after 18 h
  MIC: 0.6 µg/mL (≈ 1.45 µM)
S. pneumoniae; 18 h, ery R (second listed strain), after 18 h
  MIC: 0.6 µg/mL (≈ 1.45 µM)
S. pneumoniae; 18 h, ery R (third listed strain), after 18 h
  MIC: 0.6 µg/mL (≈ 1.45 µM)
S. pneumoniae; 18 h, ery R pen R (first listed strain), after 18 h
  MIC: 0.6 µg/mL (≈ 1.45 µM)
S. pneumoniae; 18 h, ery R pen R (second listed strain), after 18 h
  MIC: 0.6 µg/mL (≈ 1.45 µM)
S. pneumoniae; 18 h, ery S pen R, after 18 h
  MIC: 0.6 µg/mL (≈ 1.45 µM)
S. pneumoniae; 18 h, ery S, after 18 h
  MIC: 0.6 µg/mL (≈ 1.45 µM)
S. pneumoniae; 24 h, ery R (first listed strain)
  MIC: 0.6 µg/mL (≈ 1.45 µM)
S. pneumoniae; 24 h, ery R (second listed strain)
  MIC: 0.6 µg/mL (≈ 1.45 µM)
S. pneumoniae; 24 h, ery R (third listed strain)
  MIC: 0.6 µg/mL (≈ 1.45 µM)
S. pneumoniae; 24 h, ery R pen R (first listed strain)
  MIC: 0.6 µg/mL (≈ 1.45 µM)
S. pneumoniae; 24 h, ery R pen R (second listed strain)
  MIC: 0.6 µg/mL (≈ 1.45 µM)
S. pneumoniae; 24 h, ery S
  MIC: 0.6 µg/mL (≈ 1.45 µM)
S. pneumoniae; 24 h, ery S pen R
  MIC: 1.2 µg/mL (≈ 2.9 µM)
S. pneumoniae; 48 h, ery R (first listed strain)
  MIC: 0.6 µg/mL (≈ 1.45 µM)
S. pneumoniae; 48 h, ery R (second listed strain)
  MIC: 0.6 µg/mL (≈ 1.45 µM)
S. pneumoniae; 48 h, ery R (third listed strain)
  MIC: 1.2 µg/mL (≈ 2.9 µM)
S. pneumoniae; 48 h, ery R pen R (first listed strain)
  MIC: 0.6 µg/mL (≈ 1.45 µM)
S. pneumoniae; 48 h, ery R pen R (second listed strain)
  MIC: 0.6 µg/mL (≈ 1.45 µM)
S. pneumoniae; 48 h, ery S
  MIC: 0.6 µg/mL (≈ 1.45 µM)
S. pneumoniae; 48 h, ery S pen R
  MIC: 1.2 µg/mL (≈ 2.9 µM)
S. pyogenes; 18 h, ery R, after 18 h
  MIC: 1.2 µg/mL (≈ 2.9 µM)
S. pyogenes; 18 h, ery S, after 18 h
  MIC: 0.6 µg/mL (≈ 1.45 µM)
S. pyogenes; 24 h, ery R
  MIC: 1.2 µg/mL (≈ 2.9 µM)
S. pyogenes; 24 h, ery S
  MIC: 1.2 µg/mL (≈ 2.9 µM)
S. pyogenes; 48 h, ery R
  MIC: 1.2 µg/mL (≈ 2.9 µM)
S. pyogenes; 48 h, ery S
  MIC: 1.2 µg/mL (≈ 2.9 µM)
S. sanguis; 24 h
  MIC: 1.2 µg/mL (≈ 2.9 µM)
S. sanguis; 48 h
  MIC: 2.5 µg/mL (≈ 6.05 µM)
S. sanguis; after 18 h
  MIC: 1.2 µg/mL (≈ 2.9 µM)
Staphylococcus aureus [2]; 18 h, S. aureus, oflR oxaR eryR tetR, after 18 h
  MIC: 0.6 µg/mL (≈ 1.45 µM)
Staphylococcus aureus [2]; 18 h, S. aureus, oxa R ery R, after 18 h
  MIC: 0.3 µg/mL (≈ 0.725 µM)
Staphylococcus aureus [2]; 18 h, S. aureus, oxa S ery R (first listed strain), after 18 h
  MIC: 0.3 µg/mL (≈ 0.725 µM)
Staphylococcus aureus [2]; 18 h, S. aureus, oxa S ery R (second listed strain), after 18 h
  MIC: 0.6 µg/mL (≈ 1.45 µM)
Staphylococcus aureus [2]; 18 h, S. aureus, oxaR eryR tetR, after 18 h
  MIC: 0.3 µg/mL (≈ 0.725 µM)
Staphylococcus aureus [2]; 18 h, ery S, after 18 h
  MIC: 0.3 µg/mL (≈ 0.725 µM)
Staphylococcus aureus [2]; 24 h, S. aureus, oflR oxaR eryR tetR
  MIC: 0.6 µg/mL (≈ 1.45 µM)
Staphylococcus aureus [2]; 24 h, S. aureus, oxa R ery R
  MIC: 0.3 µg/mL (≈ 0.725 µM)
Staphylococcus aureus [2]; 24 h, S. aureus, oxa S ery R (first listed strain)
  MIC: 0.3 µg/mL (≈ 0.725 µM)
Staphylococcus aureus [2]; 24 h, S. aureus, oxa S ery R (second listed strain)
  MIC: 0.6 µg/mL (≈ 1.45 µM)
Staphylococcus aureus [2]; 24 h, S. aureus, oxaR eryR tetR
  MIC: 0.3 µg/mL (≈ 0.725 µM)
Staphylococcus aureus [2]; 24 h, ery S
  MIC: 0.3 µg/mL (≈ 0.725 µM)
Staphylococcus aureus [2]; 48 h, S. aureus, oflR oxaR eryR tetR
  MIC: 0.6 µg/mL (≈ 1.45 µM)
Staphylococcus aureus [2]; 48 h, S. aureus, oxa R ery R
  MIC: 0.3 µg/mL (≈ 0.725 µM)
Staphylococcus aureus [2]; 48 h, S. aureus, oxa S ery R (first listed strain)
  MIC: 0.3 µg/mL (≈ 0.725 µM)
Staphylococcus aureus [2]; 48 h, S. aureus, oxa S ery R (second listed strain)
  MIC: 0.6 µg/mL (≈ 1.45 µM)
Staphylococcus aureus [2]; 48 h, S. aureus, oxaR eryR tetR
  MIC: 0.3 µg/mL (≈ 0.725 µM)
Staphylococcus aureus [2]; 48 h, ery S
  MIC: 0.6 µg/mL (≈ 1.45 µM)
Streptococcus gr. G; 18 h, ery R, after 18 h
  MIC: 0.6 µg/mL (≈ 1.45 µM)
Streptococcus gr. G; 18 h, ery S, after 18 h
  MIC: 1.2 µg/mL (≈ 2.9 µM)
Streptococcus gr. G; 24 h, ery R
  MIC: 0.6 µg/mL (≈ 1.45 µM)
Streptococcus gr. G; 24 h, ery S
  MIC: 1.2 µg/mL (≈ 2.9 µM)
Streptococcus gr. G; 48 h, ery R
  MIC: 0.6 µg/mL (≈ 1.45 µM)
Streptococcus gr. G; 48 h, ery S
  MIC: 1.2 µg/mL (≈ 2.9 µM)
Aspergillus niger; [7]
  zone of inhibition at 10000 µM: 0 mm
Aspergillus niger; [8]
  zone of inhibition at 10000 µM: 0 mm
Aspergillus niger; [9]
  zone of inhibition at 10000 µM: 8 mm
Aspergillus niger; [10]
  Inhibitory effect on fungi: inhibitory effect—although weaker
Candida albicans; [7]
  zone of inhibition at 10000 µM: 9 mm
Candida albicans; [8]
  zone of inhibition at 10000 µM: 10 mm
Candida albicans; [9]
  zone of inhibition at 10000 µM: 10.5 mm
Candida albicans; [10]
  Inhibitory effect on yeasts: inhibitory effect—although weaker
Escherichia coli [3]; [8]
  Zone of inhibition, diameter: 0 mm
Escherichia coli [3]; [9]
  Zone of inhibition, diameter: 0 mm
Escherichia coli [3]; Escherichia coli, 10 μl of 10 mM solution on 6 mm disk, read-out: Zone of inhibition, diameter
  zone of inhibition at 10000 µM: 0 mm
Staphylococcus aureus [4]; [7]
  zone of inhibition at 10000 µM: 13 mm
Staphylococcus aureus [4]; [8]
  zone of inhibition at 10000 µM: 14.5 mm
Staphylococcus aureus [4]; [9]
  zone of inhibition at 10000 µM: 15.5 mm
Streptomyces murinus; [7]
  zone of inhibition at 10000 µM: 0 mm
Streptomyces murinus; [8]
  zone of inhibition at 10000 µM: 9 mm
Streptomyces murinus; [9]
  zone of inhibition at 10000 µM: 10 mm
Solubility; organic solvents of medium polarity and above
  Solubility in organic solvents: soluble
Solubility; water
  Solubility in water: low solubility
Stability in solution; neutral and weakly acidic media
  Stability: Stable
Stability in solution; strongly acidic and strongly alkaline solution
  Stability: unstable
Tolerability
  Tolerability: well-tolerated
Bacteria [5]
  Antibacterial effect: very good antibacterial activity

## CCCCCCC/C=C/C(=O)N1C(O)=C(C(C)=O)C(=O)[C@H]1CC(C)C [reutericyclin]
Bacteria [6]
  Antibacterial activity: weak antibacterial activity

## harzianic acid
Bacteria [6]
  Antibacterial activity: very low activity
